Test results taken from patent US7902227B2, “C-7 isoxazolinyl quinolone / naphthyridine derivatives useful as antibacterial agents” (Janssen Pharmaceutica NV., priority 2008, dated 2011).
In brackets after ≈: the same amount, converted by molar mass.

Legend:
Assay type in all cases: cell-based
[1] = tested on: Staphylococcus aureus OC4172; test: In vitro antibacterial activity (MIC), microdilution broth method (NCCLS), strain A; details: cation adjusted Mueller-Hinton broth, 35° C., 16-20 hours
Method: (§1) Minimal inhibitory concentration (MIC) has been an indicator of in vitro antibacterial activity widely used in the art. The in vitro antimicrobial activity of representative compounds of the present invention was determined by the microdilution broth method following the test method from the National Committee for Clinical Laboratory Standards (NCCLS). This method is described in the NCCLS Document M7-A4, Vol. 17, No. 2, “Methods for Dilution Antimicrobial Susceptibility Test for Bacteria that Grow Aerobically—Fourth Edition”, which is incorporated herein by reference.
(§2) In this method two-fold serial dilutions of drug in cation adjusted Mueller-Hinton broth are added to wells in microdilution trays. The test organisms are prepared by adjusting the turbidity of actively growing broth cultures so that the final concentration of test organism after it is added to the wells is approximately 5×10^4 CFU/well.
(§3) Following inoculation of the microdilution trays, the trays are incubated at 35° C. for 16-20 hours and then read. […] The amount of growth in the wells containing the test compound is compared with the amount of growth in the growth-control wells (no test compound) used in each tray. As set forth in Table 4, representative compounds of the present invention were tested against a variety of pathogenic bacteria resulting in a range of activities depending on the organism tested.

[2] = tested on: strain B, fluoroquinolone-resistant clinical isolate of Streptococcus pneumoniae; test: In vitro antibacterial activity (MIC), microdilution broth method (NCCLS), strain B; details: read-out: In vitro Antibacterial Activity MIC, B
Method: as §1, §2, §3

[3] = tested on: strain C, fluoroquinolone-resistant clinical isolate of Streptococcus pneumoniae; test: In vitro antibacterial activity (MIC), microdilution broth method (NCCLS), strain C; details: read-out: In vitro Antibacterial Activity MIC, C
Method: as §1, §2, §3

[4] = tested on: strain D, fluoroquinolone-resistant clinical isolate of Streptococcus pneumoniae; test: In vitro antibacterial activity (MIC), microdilution broth method (NCCLS), strain D; details: read-out: In vitro Antibacterial Activity MIC, D
Method: as §1, §2, §3

[5] = tested on: Streptococcus pneumoniae ATCC 49619; test: In vitro antibacterial activity (MIC), microdilution broth method (NCCLS), strain E; details: ATCC49619, 35° C., 16-20 hours
Method: as §1, §2, §3

SMILES	MIC [1]	MIC [2]	MIC [3]	MIC [4]	MIC [5]
COc1c(N2C[C@@H]3ON=C(c4ccccn4)[C@@H]3C2)ccc2c(=O)c(C(=O)O)cn(C3CC3)c12 (relative stereo) [ID No. 150, 7-[cis-3-(2-pyridyl)-3a,4,6,6a-tetrahydropyrrolo[3,4-d]isoxazol-5-yl]-1-cyclopropyl-8-methoxy-4-oxo-1,4-dihydroquinoline-3-carboxylic acid]	0.06 µg/mL (≈ 0.134 µM)	> 16 µg/mL	8 µg/mL (≈ 17.9 µM)	8 µg/mL (≈ 17.9 µM)	1 µg/mL (≈ 2.24 µM)
O=C(O)c1cn(C2CC2)c2nc(N3CC4ON=C(CN5C(=O)c6ccccc6C5=O)C4C3)c(F)cc2c1=O (stereo not shown) [ID No. 118, 1-Cyclopropyl-7-[3-(1,3-dioxo-1,3-dihydro-isoindol-2-ylmethyl)-3a,4,6,6a-tetrahydro-pyrrolo[3,4-d]isoxazol-5-yl]-6-fluoro-4-oxo-1,4-dihydro-[1,8]naphthyridine-3-carboxylic acid]	2 µg/mL (≈ 3.86 µM)	> 16 µg/mL	> 16 µg/mL	> 16 µg/mL	16 µg/mL (≈ 30.9 µM)
C[C@H]1COc2c(N3CC4ON=C(c5ccccn5)C4C3)c(F)cc3c(=O)c(C(=O)O)cn1c23 (stereo partly shown) [ID No. 129]	0.06 µg/mL (≈ 0.133 µM)	> 16 µg/mL	16 µg/mL (≈ 35.5 µM)	4 µg/mL (≈ 8.88 µM)	1 µg/mL (≈ 2.22 µM)
O=C(O)c1cn(C2CC2)c2cc(N3CC4ON=C(c5ccccn5)C4C3)c(F)cc2c1=O (stereo not shown) [ID No. 135, 1-Cyclopropyl-6-fluoro-7-[3-(pyridin-2-yl)-3a,4,6,6a-tetrahydro-pyrrolo[3,4-d]isoxazol-5-yl]-4-oxo-1,4-dihydro-quinoline-3-carboxylic acid]	0.03 µg/mL (≈ 0.0691 µM)	8 µg/mL (≈ 18.4 µM)	2 µg/mL (≈ 4.6 µM)	4 µg/mL (≈ 9.21 µM)	1 µg/mL (≈ 2.3 µM)
O=C(O)c1cn(-c2ccc(F)cc2F)c2nc(N3CC4ON=C(CN5C(=O)c6ccccc6C5=O)C4C3)c(F)cc2c1=O (stereo not shown) [ID No. 108, 1-(2,4-Difluoro-phenyl)-7-[3-(1,3-dioxo-1,3-dihydro-isoindol-2-ylmethyl)-3a,4,6,6a-tetrahydro-pyrrolo[3,4-d]isoxazol-5-yl]-6-fluoro-4-oxo-1,4-dihydro-[1,8]naphthyridine-3-carboxylic acid]	0.25 µg/mL (≈ 0.424 µM)	> 16 µg/mL	> 16 µg/mL	> 16 µg/mL	8 µg/mL (≈ 13.6 µM)
O=C(O)c1cn(C2CC2)c2nc(N3CC4ON=C(c5ccc(C(F)(F)F)nc5)C4C3)c(F)cc2c1=O (stereo not shown) [ID No. 112, 1-Cyclopropyl-6-fluoro-4-oxo-7-[3-(6-trifluoromethyl-pyridin-3-yl)-3a,4,6,6a-tetrahydro-pyrrolo[3,4-d]isoxazol-5-yl]-1,4-dihydro-[1,8]naphthyridine-3-carboxylic acid]	0.25 µg/mL (≈ 0.497 µM)	16 µg/mL (≈ 31.8 µM)	> 16 µg/mL	8 µg/mL (≈ 15.9 µM)	2 µg/mL (≈ 3.97 µM)
O=C(O)c1cn(C2CC2)c2nc(N3CC4ON=C(c5ccncc5)C4C3)c(F)cc2c1=O (stereo not shown) [ID No. 115]	0.06 µg/mL (≈ 0.138 µM)	16 µg/mL (≈ 36.7 µM)	8 µg/mL (≈ 18.4 µM)	4 µg/mL (≈ 9.19 µM)	1 µg/mL (≈ 2.3 µM)
CCOC(=O)C1=NOC2CN(c3c(F)cc4c(=O)c(C(=O)O)cn5c4c3OC[C@@H]5C)CC12 (stereo partly drawn) [ID No. 131, 7-[cis-3-(ethoxycarbonyl)-3a,4,6,6a-tetrahydropyrrolo[3,4-d]isoxazol-5-yl]S-(−)-9,10-difluoro-2,3-dihydro-3-methyl-7-oxo-7H-pyrido-[1,2,3-de][1,4]-benzoxazine-6-carboxylic acid]	1 µg/mL (≈ 2.25 µM)	> 16 µg/mL	> 16 µg/mL	> 16 µg/mL	16 µg/mL (≈ 35.9 µM)
O=C(O)c1cn(C2CC2)c2cc(N3CC4ON=C(c5cccnc5)C4C3)c(F)cc2c1=O (stereo not shown) [ID No. 136, 1-Cyclopropyl-6-fluoro-7-[3-(pyridin-3-yl)-3a,4,6,6a-tetrahydro-pyrrolo[3,4-d]isoxazol-5-yl]-4-oxo-1,4-dihydro-quinoline-3-carboxylic acid]	0.06 µg/mL (≈ 0.138 µM)	8 µg/mL (≈ 18.4 µM)	4 µg/mL (≈ 9.21 µM)	8 µg/mL (≈ 18.4 µM)	1 µg/mL (≈ 2.3 µM)
O=C(O)c1cn(C2CC2)c2nc(N3CC4ON=C(CO)C4C3)c(F)cc2c1=O (stereo not shown) [ID No. 117, 1-Cyclopropyl-6-fluoro-7-(3-hydroxymethyl-3a,4,6,6a-tetrahydro-pyrrolo[3,4-d]isoxazol-5-yl)-4-oxo-1,4-dihydro-[1,8]naphthyridine-3-carboxylic acid]	0.5 µg/mL (≈ 1.29 µM)	16 µg/mL (≈ 41.2 µM)	16 µg/mL (≈ 41.2 µM)	16 µg/mL (≈ 41.2 µM)	8 µg/mL (≈ 20.6 µM)
O=C(O)c1cn(C2CC2)c2nc(N3CC4ON=C(c5ccccn5)C4C3)c(F)cc2c1=O (stereo not shown) [ID No. 113, 1-Cyclopropyl-6-fluoro-4-oxo-7-(3-pyridin-2-yl-3a,4,6,6a-tetrahydro-pyrrolo[3,4-d]isoxazol-5-yl)-1,4-dihydro-[1,8]naphthyridine-3-carboxylic acid]	0.06 µg/mL (≈ 0.138 µM)	16 µg/mL (≈ 36.7 µM)	2 µg/mL (≈ 4.59 µM)	4 µg/mL (≈ 9.19 µM)	1 µg/mL (≈ 2.3 µM)
COc1c(N2C[C@@H]3ON=C(c4ccc(C(F)(F)F)nc4)[C@@H]3C2)c(F)cc2c(=O)c(C(=O)O)cn(C3CC3)c12 (relative stereo) [ID No. 121, 7-[cis-3-(6-Trifluoromethyl-3-pyridyl)-3a,4,6,6a-tetrahydropyrrolo[3,4-d]isoxazol-5-yl]-1-cyclopropyl-8-methoxy-6-fluoro-4-oxo-1,4-dihydroquinoline-3-carboxylic acid]	0.25 µg/mL (≈ 0.47 µM)	0.16 µg/mL (≈ 0.3 µM)	> 16 µg/mL	8 µg/mL (≈ 15 µM)	4 µg/mL (≈ 7.51 µM)
O=C(O)c1cn(-c2ccc(F)cc2F)c2nc(N3CC4ON=C(c5cccnc5)C4C3)c(F)cc2c1=O (stereo not shown) [ID No. 105, 1-(2,4-Difluoro-phenyl)-6-fluoro-4-oxo-7-(3-pyridin-3-yl-3a,4,6,6a-tetrahydro-pyrrolo[3,4-d]isoxazol-5-yl)-1,4-dihydro-[1,8]naphthyridine-3-carboxylic acid]	0.06 µg/mL (≈ 0.118 µM)	0.5 µg/mL (≈ 0.985 µM)	2 µg/mL (≈ 3.94 µM)	2 µg/mL (≈ 3.94 µM)	1 µg/mL (≈ 1.97 µM)
COc1ccc(C2=NOC3CN(c4nc5c(cc4F)c(=O)c(C(=O)O)cn5C4CC4)CC23)cn1 (stereo not shown) [ID No. 111, 1-Cyclopropyl-6-fluoro-7-[3-(6-methoxypyridin-3-yl)-3a,4,6,6a-tetrahydro-pyrrolo[3,4-d]isoxazol-5-yl]-4-oxo-1,4-dihydro-[1,8]naphthyridine-3-carboxylic acid]	0.03 µg/mL (≈ 0.0645 µM)	8 µg/mL (≈ 17.2 µM)	4 µg/mL (≈ 8.59 µM)	2 µg/mL (≈ 4.3 µM)	0.5 µg/mL (≈ 1.07 µM)
COc1ccc(C2=NOC3CN(c4cc5c(cc4F)c(=O)c(C(=O)O)cn5C4CC4)CC23)cn1 (stereo not shown) [ID No. 134, 1-Cyclopropyl-6-fluoro-7-[3-(6-methoxy-pyridin-3-yl)-3a,4,6,6a-tetrahydro-pyrrolo[3,4-d]isoxazol-5-yl]-4-oxo-1,4-dihydro-quinoline-3-carboxylic acid]	0.12 µg/mL (≈ 0.258 µM)	16 µg/mL (≈ 34.4 µM)	> 16 µg/mL	8 µg/mL (≈ 17.2 µM)	2 µg/mL (≈ 4.31 µM)
O=C(O)c1cn(-c2ccc(F)cc2F)c2nc(N3CC4ON=C(c5ccccn5)C4C3)c(F)cc2c1=O (stereo not shown) [ID No. 104, 1-(2,4-Difluoro-phenyl)-6-fluoro-4-oxo-7-(3-pyridin-2-yl-3a,4,6,6a-tetrahydro-pyrrolo[3,4-d]isoxazol-5-yl)-1,4-dihydro-[1,8]naphthyridine-3-carboxylic acid]	0.06 µg/mL (≈ 0.118 µM)	0.5 µg/mL (≈ 0.985 µM)	2 µg/mL (≈ 3.94 µM)	4 µg/mL (≈ 7.88 µM)	1 µg/mL (≈ 1.97 µM)
O=C(O)c1cn(-c2ccc(F)cc2F)c2nc(N3CC4ON=C(c5ccc(C(F)(F)F)nc5)C4C3)c(F)cc2c1=O (stereo not shown) [ID No. 103, 1-(2,4-Difluoro-phenyl)-6-fluoro-4-oxo-7-[3-(6-trifluoromethyl-pyridin-3-yl)-3a,4,6,6a-tetrahydro-pyrrolo[3,4-d]isoxazol-5-yl]-1,4-dihydro-[1,8]naphthyridine-3-carboxylic acid]	0.25 µg/mL (≈ 0.434 µM)	8 µg/mL (≈ 13.9 µM)	> 16 µg/mL	4 µg/mL (≈ 6.95 µM)	2 µg/mL (≈ 3.48 µM)
